# Literature values as cited in patent US20040248979A1, “Method of treating lower urinary tract disorders” (DYNOGEN PHARMACEUTICALS, INC., priority 2003, published 2004).
# Experiments:
# [1] = preclinical and clinical studies
# [2] = system: α2δ subunits of calcium channels
smiles,measurement,setting,value
CC(OC(=O)NCC1(CC(=O)O)CCCCC1)OC(=O)C(C)C (centres unmarked) [XP13512],blood levels of gabapentin across oral doses,[1]; broad range of oral doses,dose proportional blood levels of gabapentin
same,absorption from the large intestine,[1],absorbed efficiently from the large intestine
"CC(C)C[C@H](CN)CC(=O)O [Pregabalin, (3S)-3-(aminomethyl)-5-methylhexanoic acid]",binding affinity for calcium channel subunits,[2],even higher binding affinity for certain α2δ subunits of calcium channels than gabapentin
"NCC1(CC(=O)O)CCCCC1 [Gabapentin, 1-(aminomethyl) cyclohexaneacetic acid]",binding affinity for calcium channel subunits,[2],high binding affinity
"COc1cccc([C@]2(O)CCCC[C@H]2CN(C)C)c1 (racemic) [Tramadol, (+/−)cis-2-[(dimethylamino)methyl]-1-(3-methoxyphenyl) cyclohexanol]",affinity for opioid receptors,opioid receptors,low affinity
